Reference: the supplement of paper PMC10307832

What was measured:
Assay in all cases: relative viability (nuclei count vs DMSO), 5 days (fraction); higher = more cells survive
XMD13-2 + Trametinib = compound: C1CC1C(=O)NC2=NNC3=C2C=CC(=C3)C4=CC(=CC=C4)C(=O)NC5CC5 [XMD13-2] + CC(=O)Nc1cccc(-n2c(=O)n(C3CC3)c(=O)c3c(Nc4ccc(I)cc4F)n(C)c(=O)c(C)c32)c1 [Trametinib] (partner 0.02 µM)
Procedure, shortened: (§1)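 One day after seeding in 1536-well plates, lung cancer cell lines were dosed by pin tool. Dosing was either single-drug or a fixed anchor-drug dose plus five library-drug doses (not always all listed) in √10 steps. After 5 days, nuclei were stained in one fix-and-stain step and counted on 4× images, and relative viability is the nuclei count of treated wells over that of vehicle wells, given as the median of duplicate plates.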

ALW-II-49-7 + Navitoclax = compound: Cc1ccc(C(=O)Nc2cccc(C(F)(F)F)c2)cc1Nc1cncc(C(N)=O)c1 [ALW-II-49-7] + CC1(C)CCC(c2ccc(Cl)cc2)=C(CN2CCN(c3ccc(C(=O)NS(=O)(=O)c4ccc(N[C@H](CCN5CCOCC5)CSc5ccccc5)c(S(=O)(=O)C(F)(F)F)c4)cc3)CC2)C1 [Navitoclax] (partner 0.5 µM)
Procedure, shortened: as §1

Dasatinib + Pictilisib = compound: Cc1nc(Nc2ncc(C(=O)Nc3c(C)cccc3Cl)s2)cc(N2CCN(CCO)CC2)n1 [Dasatinib] + CS(=O)(=O)N1CCN(Cc2cc3nc(-c4cccc5[nH]ncc45)nc(N4CCOCC4)c3s2)CC1 [Pictilisib] (partner 1 µM)
Procedure, shortened: as §1

Dasatinib + Linsitinib = compound: Cc1nc(Nc2ncc(C(=O)Nc3c(C)cccc3Cl)s2)cc(N2CCN(CCO)CC2)n1 [Dasatinib] + C[C@]1(O)C[C@@H](c2nc(-c3ccc4ccc(-c5ccccc5)nc4c3)c3c(N)nccn32)C1 [Linsitinib] (partner 1 µM)
Procedure, shortened: as §1

Cell Line	relative viability (XMD13-2 + Trametinib; first compound 0.05 µM)	relative viability (XMD13-2 + Trametinib; first compound 0.1581 µM)	relative viability (XMD13-2 + Trametinib; first compound 0.5 µM)	relative viability (XMD13-2 + Trametinib; first compound 1.581 µM)	relative viability (XMD13-2 + Trametinib; first compound 5 µM)	relative viability (ALW-II-49-7 + Navitoclax; first compound 0.08 µM)	relative viability (ALW-II-49-7 + Navitoclax; first compound 0.253 µM)	relative viability (ALW-II-49-7 + Navitoclax; first compound 0.8 µM)	relative viability (ALW-II-49-7 + Navitoclax; first compound 2.53 µM)	relative viability (ALW-II-49-7 + Navitoclax; first compound 8 µM)	relative viability (Dasatinib + Pictilisib; first compound 0.005 µM)	relative viability (Dasatinib + Pictilisib; first compound 0.01581 µM)	relative viability (Dasatinib + Pictilisib; first compound 0.05 µM)	relative viability (Dasatinib + Pictilisib; first compound 0.1581 µM)	relative viability (Dasatinib + Pictilisib; first compound 0.5 µM)	relative viability (Dasatinib + Linsitinib; first compound 0.005 µM)	relative viability (Dasatinib + Linsitinib; first compound 0.01581 µM)	relative viability (Dasatinib + Linsitinib; first compound 0.05 µM)	relative viability (Dasatinib + Linsitinib; first compound 0.1581 µM)	relative viability (Dasatinib + Linsitinib; first compound 0.5 µM)
COR-L 105	0.423	0.466	0.432	0.476	0.393	0.812	0.669	0.767	0.721	0.655	0.359	0.383	0.316	0.308	0.245	0.753	0.522	0.689	0.366	0.263
Calu-6	–	–	–	–	–	0.814	0.84	0.731	0.591	0.636	0.732	0.65	0.742	0.604	0.527	0.764	0.811	0.694	0.561	0.424
ChaGo-K-1	0.937	0.89	0.959	0.847	0.835	0.931	1.45	1.27	1.29	0.753	0.435	0.761	0.774	0.649	0.626	–	–	–	–	–
EBC-1	–	–	–	–	–	0.403	0.377	0.348	0.321	0.277	0.329	0.231	0.216	0.181	0.204	0.787	0.805	0.782	0.589	0.467
